Experimental data taken from ChEMBL document CHEMBL3044741, “Synthesis of novel biologically active methylene derivatives of sydnones” (Med Chem Res, 2013).
In brackets after ≈: the same amount, converted by molar mass.

Assays:
Assay type in all cases: functional
HCT-116 = assay: Cytotoxicity against human HCT116 assessed as cell growth at high concentration
A498 = assay: Cytotoxicity against human A498 assessed as cell growth at high concentration
[1] = Cytotoxicity against human NCI-ADR-RES assessed as cell growth at high concentration
SK-OV-3 = assay: Cytotoxicity against human SKOV3 assessed as cell growth at high concentration
HCT-15 = assay: Cytotoxicity against human HCT15 assessed as cell growth at high concentration
Staphylococcus aureus [2] = assay: Antibacterial activity against Staphylococcus aureus MTCC 96 at 250 ug/ml after 24 hrs by Kirby-Bauer method; conditions: MTCC 96, 24 h, read-out: IZ
TK-10 = assay: Cytotoxicity against human TK10 assessed as cell growth at high concentration
RXF 393 = assay: Cytotoxicity against human RXF393 assessed as cell growth at high concentration
Candida albicans [3] = assay: Antifungal activity against Candida albicans MTCC 227
MOLT-4 = assay: Cytotoxicity against human MOLT4 assessed as cell growth at high concentration
Malme-3M = assay: Cytotoxicity against human MALME-3M assessed as cell growth at high concentration
NCI-H322M = assay: Cytotoxicity against human NCI-H322M assessed as cell growth at high concentration
UACC-62 = assay: Cytotoxicity against human UACC62 assessed as cell growth at high concentration
OVCAR-8 = assay: Cytotoxicity against human OVCAR8 assessed as cell growth at high concentration
NCI-H23 = assay: Cytotoxicity against human NCI-H23 assessed as cell growth at high concentration
Candida albicans [4] = assay: Antifungal activity against Candida albicans MTCC 227 at 250 ug/ml after 74 hrs by Kirby-Bauer method; conditions: MTCC 227, 74 h, read-out: IZ
SN12C = assay: Cytotoxicity against human SN12C assessed as cell growth at high concentration
OVCAR-4 = assay: Cytotoxicity against human OVCAR4 assessed as cell growth at high concentration
Streptococcus pyogenes [5] = assay: Antibacterial activity against Streptococcus pyogenes MTCC 442 at 250 ug/ml after 24 hrs by Kirby-Bauer method; conditions: MTCC 442, 24 h, read-out: IZ
Aspergillus clavatus [6] = assay: Antifungal activity against Aspergillus clavatus MTCC 1323
SK-MEL-2 = assay: Cytotoxicity against human SK-MEL-2 assessed as cell growth at high concentration
Escherichia coli [7] = assay: Antibacterial activity against Escherichia coli MTCC 443 at 250 ug/ml after 24 hrs by Kirby-Bauer method; conditions: MTCC 443, 24 h, read-out: IZ
CAKI-1 = assay: Cytotoxicity against human Caki1 assessed as cell growth at high concentration
MDA-MB-435 = assay: Cytotoxicity against human MDA-MB-435 assessed as cell growth at high concentration
KM12 = assay: Cytotoxicity against human KM12 assessed as cell growth at high concentration
Streptococcus pyogenes [8] = assay: Antibacterial activity against Streptococcus pyogenes MTCC 442 after 24 hrs by broth dilution method; conditions: MTCC 442, 24 h
MCF7 = assay: Cytotoxicity against human MCF7 assessed as cell growth at high concentration
IGROV-1 = assay: Cytotoxicity against human IGROV1 assessed as cell growth at high concentration
COLO 205 = assay: Cytotoxicity against human COLO205 assessed as cell growth at high concentration
T47D = assay: Cytotoxicity against human T47D assessed as cell growth at high concentration
K562 = assay: Cytotoxicity against human K562 assessed as cell growth at high concentration
Pseudomonas aeruginosa [9] = assay: Antibacterial activity against Pseudomonas aeruginosa MTCC 424 after 24 hrs by broth dilution method; conditions: MTCC 424, 24 h
Aspergillus clavatus [10] = assay: Antifungal activity against Aspergillus clavatus MTCC 1323 at 250 ug/ml after 74 hrs by Kirby-Bauer method; conditions: MTCC 1323, 74 h, read-out: IZ
SF-295 = assay: Cytotoxicity against human SF295 assessed as cell growth at high concentration
Pseudomonas aeruginosa [11] = assay: Antibacterial activity against Pseudomonas aeruginosa MTCC 424 at 250 ug/ml after 24 hrs by Kirby-Bauer method; conditions: MTCC 424, 24 h, read-out: IZ
A549 = assay: Cytotoxicity against human A549 assessed as cell growth at high concentration
PC-3 = assay: Cytotoxicity against human PC3 assessed as cell growth at high concentration
HCC 2998 = assay: Cytotoxicity against human HCC2998 assessed as cell growth at high concentration
HL-60(TB) = assay: Cytotoxicity against human HL-60(TB) assessed as cell growth at high concentration
UO-31 = assay: Cytotoxicity against human UO31 assessed as cell growth at high concentration
Aspergillus niger [12] = assay: Antifungal activity against Aspergillus niger MTCC 282 at 250 ug/ml after 74 hrs by Kirby-Bauer method; conditions: MTCC 282, 74 h, read-out: IZ
M14 = assay: Cytotoxicity against human M14 assessed as cell growth at high concentration
Staphylococcus aureus [13] = assay: Antibacterial activity against Staphylococcus aureus MTCC 96 after 24 hrs by broth dilution method; conditions: MTCC 96, 24 h
SK-MEL-5 = assay: Cytotoxicity against human SK-MEL-5 assessed as cell growth at high concentration
HOP-62 = assay: Cytotoxicity against human HOP62 assessed as cell growth at high concentration
Hs-578T = assay: Cytotoxicity against human Hs 578T assessed as cell growth at high concentration
U-251 = assay: Cytotoxicity against human U251 assessed as cell growth at high concentration
MDA-MB-468 = assay: Cytotoxicity against human MDA-MB-468 assessed as cell growth at high concentration
RPMI-8226 = assay: Cytotoxicity against human RPMI8226 assessed as cell growth at high concentration
CCRF-CEM = assay: Cytotoxicity against human CCRF-CEM assessed as cell growth at high concentration
BT-549 = assay: Cytotoxicity against human BT549 assessed as cell growth at high concentration
NCI-H522 = assay: Cytotoxicity against human NCI-H522 assessed as cell growth at high concentration
SK-MEL-28 = assay: Cytotoxicity against human SK-MEL-28 assessed as cell growth at high concentration
HT-29 = assay: Cytotoxicity against human HT-29 assessed as cell growth at high concentration
MDA-MB-231 = assay: Cytotoxicity against human MDA-MB-231 assessed as cell growth at high concentration
OVCAR-3 = assay: Cytotoxicity against human OVCAR3 assessed as cell growth at high concentration
Aspergillus niger [14] = assay: Antifungal activity against Aspergillus niger MTCC 282
786-0 = assay: Cytotoxicity against human 786-0 assessed as cell growth at high concentration
NCI-H226 = assay: Cytotoxicity against human NCI-H226 assessed as cell growth at high concentration
SNB-19 = assay: Cytotoxicity against human SNB19 assessed as cell growth at high concentration
SR = assay: Cytotoxicity against human SR assessed as cell growth at high concentration
SW-620 = assay: Cytotoxicity against human SW620 assessed as cell growth at high concentration
LOX IMVI = assay: Cytotoxicity against human LOXIMVI assessed as cell growth at high concentration
EKVX = assay: Cytotoxicity against human EKVX assessed as cell growth at high concentration
SF-268 = assay: Cytotoxicity against human SF268 assessed as cell growth at high concentration
SF-539 = assay: Cytotoxicity against human SF539 assessed as cell growth at high concentration
SNB-75 = assay: Cytotoxicity against human SNB75 assessed as cell growth at high concentration
Escherichia coli [15] = assay: Antibacterial activity against Escherichia coli MTCC 443 after 24 hrs by broth dilution method; conditions: MTCC 443, 24 h
UACC-257 = assay: Cytotoxicity against human UACC257 assessed as cell growth at high concentration
DU-145 = assay: Cytotoxicity against human DU145 assessed as cell growth at high concentration
NCI-H460 = assay: Cytotoxicity against human NCI-H460 assessed as cell growth at high concentration

[O-]c1on[n+](-c2ccc(Cc3ccc(-[n+]4noc([O-])c4CN4CCOCC4)cc3)cc2)c1CN1CCOCC1
Activity (HCT-116): 63.75% | Activity (A498): 53.74% | Activity [1]: 63.42% | Activity (SK-OV-3): 87.98% | Activity (HCT-15): 78.57% | zone of inhibition at 250 µg/mL (Staphylococcus aureus [2]): 21 mm | Activity (TK-10): 74.48% | Activity (RXF 393): 72.21% | MIC (Candida albicans [3]): 500 µg/mL (≈ 935 µM) | Activity (MOLT-4): 68.41% | Activity (Malme-3M): 65.64% | Activity (NCI-H322M): 82.54% | Activity (UACC-62): 53.38% | Activity (OVCAR-8): 80.93% | Activity (NCI-H23): 62.15% | zone of inhibition at 250 µg/mL (Candida albicans [4]): 23 mm | Activity (SN12C): 80.32% | Activity (OVCAR-4): 53.91% | zone of inhibition at 250 µg/mL (Streptococcus pyogenes [5]): 19 mm | MIC (Aspergillus clavatus [6]): 500 µg/mL (≈ 935 µM) | Activity (SK-MEL-2): 78.61% | zone of inhibition at 250 µg/mL (Escherichia coli [7]): 18 mm | Activity (CAKI-1): 49.27% | Activity (MDA-MB-435): 4.71% | Activity (KM12): 54.32% | MIC (Streptococcus pyogenes [8]): 250 µg/mL (≈ 468 µM) | Activity (MCF7): 45.59% | Activity (IGROV-1): 62.3% | Activity (COLO 205): 99.94% | Activity (T47D): 56.09% | Activity (K562): 26.39% | MIC (Pseudomonas aeruginosa [9]): 125 µg/mL (≈ 234 µM) | zone of inhibition at 250 µg/mL (Aspergillus clavatus [10]): 24 mm | Activity (SF-295): 44.14% | zone of inhibition at 250 µg/mL (Pseudomonas aeruginosa [11]): 21 mm | Activity (A549): 69.06% | Activity (PC-3): 56.45% | Activity (HCC 2998): 80.48% | Activity (HL-60(TB)): 86.39% | Activity (UO-31): 44.31% | zone of inhibition at 250 µg/mL (Aspergillus niger [12]): 23 mm | Activity (M14): 69.54% | MIC (Staphylococcus aureus [13]): 100 µg/mL (≈ 187 µM) | Activity (SK-MEL-5): 53.16% | Activity (HOP-62): 77% | Activity (Hs-578T): 64.02% | Activity (U-251): 62.81% | Activity (MDA-MB-468): 11.42% | Activity (RPMI-8226): 60.49% | Activity (CCRF-CEM): 63.93% | Activity (BT-549): 60.72% | Activity (NCI-H522): 36.96% | Activity (SK-MEL-28): 74.89% | Activity (HT-29): 89.7% | Activity (MDA-MB-231): 60.45% | Activity (OVCAR-3): 89.12% | MIC (Aspergillus niger [14]): 250 µg/mL (≈ 468 µM) | Activity (786-0): 73.96% | Activity (NCI-H226): 85.46% | Activity (SNB-19): 86.48% | Activity (SR): 23.05% | Activity (SW-620): 67.72% | Activity (LOX IMVI): 65.03% | Activity (EKVX): 69.86% | Activity (SF-268): 78.33% | Activity (SF-539): 77.5% | Activity (SNB-75): 72.63% | MIC (Escherichia coli [15]): 250 µg/mL (≈ 468 µM) | Activity (UACC-257): 75.14% | Activity (DU-145): 100.94% | Activity (NCI-H460): 82.89%
